Read-outs that look alike come from different tables or passages of the source. Where no end group is shown, it is not given here.

Common to all, as to assay: Fluorescence polarization displacement assay
Type in all cases: binding
A general note: Polarisation of emitted light reports the rotation of a fluorescent probe.

Assay [1] addresses T1, MDM2H.sapiens SWIB domain (Homo sapiens, UniProt Q00987).
T1 construct: NusA-TEV-His6-PreScission (N, cleaved yes); made in house; host or cells: Escherichia coli BL21 (DE3)

The target of assay [2] is MDM2 SWIB domain, Anguilla anguilla. As to conditions: for Kd: FP displacement of FITC-p53TADhuman^15–26 (15 nM) from MDM2 (1 μM), KD from IC50, 20 mM sodium phosphate pH 7.4, 150 mM NaCl, 1 mM TCEP.
For assay [3], the target named is MDM2 SWIB domain, Clupea harengus. As to conditions: for Kd: FP displacement of FITC-p53TADhuman^15–26 (15 nM) from MDM2 (1 μM), KD from IC50, 20 mM sodium phosphate pH 7.4, 150 mM NaCl, 1 mM TCEP.
Assay [4] deals with MDM2 SWIB domain, Oncorhynchus kisutch. As to conditions: for Kd: FP displacement of FITC-p53TADhuman^15–26 (15 nM) from MDM2, KD from IC50, 20 mM sodium phosphate pH 7.4, 150 mM NaCl, 1 mM TCEP; for IC50 / Ki: O.kis MDM2 2000 nM.
Where [5] appears, read: equals the mean of the replicates, read-out: IC50 [nM], mean.
[6] abbreviates: mean of the replicates (n = 3 or 6), read-out: Ki [nM] Average.
The mark [7] stands for this setting: mean of the replicates (n = 3 or 6), read-out: Ki [µM] Average.
The mark [8] stands for this setting: replicate 1, MDM2 1000 nM, labeled probe 15 nM, read-out: IC50 [M] (IT).
Setting [9] is: replicate 1, calculated from IC50 with Kd for probe […], read-out: Ki.
The mark [10] stands for this setting: replicate 2, MDM2 1000 nM, labeled probe 15 nM, read-out: IC50 [M] (IT).
[11] abbreviates: replicate 2, calculated from IC50 with Kd for probe […], read-out: Ki.
Where [12] appears, read: replicate 3, MDM2 1000 nM, labeled probe 15 nM, read-out: IC50 [M] (IT).
The mark [13] stands for this setting: replicate 3, calculated from IC50 with Kd for probe […], read-out: Ki.
[14] abbreviates: labeled probe 15 nM, replicate 1, read-out: IC50 [M] (IT).
Where [15] appears, read: labeled probe 15 nM, replicate 2, read-out: IC50 [M] (IT).
Setting [16] is: labeled probe 15 nM, replicate 3, read-out: IC50 [M] (IT).
The mark [17] stands for this setting: average of the replicates, probe 15 nM, Kd for probe […], read-out: Ki [nM] Average.
[18] abbreviates: average of the replicates, probe 15 nM, Kd for probe […], read-out: Ki [µM] Average.
The mark [19] stands for this setting: calculated from IC50, Kd for probe […], probe 15 nM, replicate 1, read-out: Ki.
[20] abbreviates: calculated from IC50, Kd for probe […], probe 15 nM, replicate 2, read-out: Ki.
[21] abbreviates: calculated from IC50, Kd for probe […], probe 15 nM, replicate 3, read-out: Ki.
[22] abbreviates: mean of the replicates, probe 15 nM, read-out: IC50 [nM], mean of the replicates.

MDM2 SWIB domain, Oncorhynchus kisutch, sequence (as listed by the source): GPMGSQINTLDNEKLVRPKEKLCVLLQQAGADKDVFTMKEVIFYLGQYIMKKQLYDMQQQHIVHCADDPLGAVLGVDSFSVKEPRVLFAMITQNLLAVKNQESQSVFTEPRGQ
MDM2 SWIB domain, Anguilla anguilla, sequence (as listed by the source): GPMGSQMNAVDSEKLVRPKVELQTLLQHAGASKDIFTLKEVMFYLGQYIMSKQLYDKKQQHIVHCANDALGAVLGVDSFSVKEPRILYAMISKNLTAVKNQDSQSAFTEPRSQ
T1 sequence (Q00987 with tags, fused parts or gaps): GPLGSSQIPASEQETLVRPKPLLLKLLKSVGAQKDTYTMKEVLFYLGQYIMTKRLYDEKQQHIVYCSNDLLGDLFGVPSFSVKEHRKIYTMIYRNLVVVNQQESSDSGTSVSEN
MDM2 SWIB domain, Clupea harengus, sequence (as listed by the source): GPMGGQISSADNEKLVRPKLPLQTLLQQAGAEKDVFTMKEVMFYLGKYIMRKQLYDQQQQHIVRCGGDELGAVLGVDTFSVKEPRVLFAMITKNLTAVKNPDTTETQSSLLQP

In assay [1], Ac-SQESFQELWNMVM [Tele p53 ML] registered an IC50 of 0.456 µM and a Kd of 0.039 µM.
In assay [1], Ac-SQESFQDLWNMVT [Acti p53 ML] gave an IC50 of 1.51 µM and an inhibition constant (Ki) of 0.183 µM.
Taken in the same sequence, the figures for Ac-SQDETFQALWNTVT [A.ang p53 P2 short] were 5.78 µM and 0.767 µM.
The compound “GPMGMTEQEGTGALEYSLSQDETFQALWNTVTVPTEDEGWGSLDNQYLVGSPLQDGFDEKLFDVPATPAPPQPSGSALDSGAPPAST [A.ang p53 P2 full, expressed full-length European eel p53TAD paralog 2]” registered a Kd in assay [2] of 0.06 ± 0.01 µM. Besides, the IC50 turned out to be 1230 nM in assay [2] (setting [5]), 1360 nM in assay [2] (setting [8]), 1080 nM in assay [2] (setting [10]) and 1240 nM in assay [2] (setting [12]). Also, the Ki in assay [2] (setting [6]) is 63.5 nM; in assay [2] (setting [7]) it was 63.5 nM; in assay [2] (setting [9]) it was 85.1 nM; in assay [2] (setting [11]) it was 39.5 nM; in assay [2] (setting [13]), 65.8 nM.
Consider Ac-SQESFEDLWKMNL [O.kis p53 P2 short], for which, in assay [1], the IC50 came to 5.93 µM and the affinity, expressed as Ki, was 0.787 µM.
Taken in the same sequence, the figures for `CC[C@H](C)[C@H](NC(=O)[C@H](CO)NC(=O)[C@H](CC(N)=O)NC(=O)[C@H](Cc1c[nH]c2ccccc12)NC(=O)[C@H](CC(C)C)NC(=O)[C@H](CC(=O)O)NC(=O)[C@H](CCC(=O)O)NC(=O)[C@H](Cc1ccccc1)NC(=O)[C@H](CC(=O)O)NC(=O)[C@@H]1CCCN1C(=O)[C@H](CO)NC(=O)[C@H](CC(=O)O)NC(C)=O)C(=O)N[C@H](C(=O)O)C(C)C` [C.har p53 P2 short] were 2.31 µM and 0.293 µM.
Taken in the same sequence, the figures for Ac-GQCSFQQLWESNM [O.kis p53 P1a short] were 23.2 µM and 3.15 µM.
With `CC(C)C[C@H](NC(=O)[C@@H](NC(=O)[C@H](CC(N)=O)NC(=O)[C@H](CC(N)=O)NC(=O)[C@H](CCC(=O)O)NC(=O)[C@H](C)NC(=O)[C@H](CC(C)C)NC(=O)[C@H](CC(C)C)NC(=O)[C@H](CCCCN)NC(=O)[C@H](Cc1c[nH]c2ccccc12)NC(=O)[C@H](CC(C)C)NC(=O)[C@H](CC(=O)O)NC(=O)[C@H](CO)NC(=O)[C@H](Cc1ccccc1)NC(=O)[C@@H](NC(=O)[C@@H](N)CCC(=O)O)[C@@H](C)O)C(C)C)C(=O)O` [H.sap p53 P27A], the “remark on affinity beside the average Ki” value in assay [1] (probe 15 nM, protein 200 nM, calculated Ki negative) is listed as “very high affinity”.
Consider Ac-SQESFQELWNMVA [Acti p53 AA], for which, in assay [1], the IC50 came to 0.459 µM and the Kd was 0.039 µM.
Ac-SQESFQELWKMIL [Tele p53 AA] gave a 50% inhibitory concentration (IC50) in assay [1] of 0.105 µM. For the same compound, the KD entry in assay [1] (FP displacement, printed in nM (Fig. S4 A native and B human MDM2)) is “lowest_Kd”. In assay [1] (H.sap MDM2, labeled probe 15 nM, protein 200 nM, result in words), the “Ki, remark beside the average” value is “very high affinity”.
In assay [1], Ac-SQGTFDEIWASNF [C.har p53 P1 short] came in with an IC50 of 9.33 µM and a Ki of 1.25 µM.
On to Ac-SQDTFQDLWENVA [T.rub p53 P1 short], for which, in assay [1], the IC50 was found to be 12.7 µM and the Ki turned out to be 1.71 µM.
In assay [1], Ac-SQDSFKELWDQLP [M.zeb p53 P1 short] registered an IC50 of 2.15 µM and a Ki of 0.27 µM.
With “GPMGMNDQGDSPDFEDLWNSIVPPVADVPWETSYLPESFDEQVFEQLQVSEPYIPTLGGGSPPCSA [C.har p53 P2 full, expressed full-length Atlantic herring p53TAD paralog 2]”, binding in assay [3] was put at a Kd of 0.04 ± 0.01 µM. In addition, the 50% inhibitory concentration (IC50) was 904 nM in assay [3] (setting [5]), 913 nM in assay [3] (setting [8]), 983 nM in assay [3] (setting [10]) and 815 nM in assay [3] (setting [12]). Besides, the Ki in assay [3] (setting [6]) is 37.1 nM; in assay [3] (setting [7]), 37 nM; in assay [3] (setting [9]) it was 39.8 nM; in assay [3] (setting [11]), 59.7 nM; in assay [3] (setting [13]), 11.9 nM.
In assay [1], Ac-SQDSFRELWESVV [C.arg p53 P1 short] registered an IC50 of 8.08 µM and a Ki of 1.08 µM.
On to Ac-SQESFQELWKMMC [A.ang p53 P1 short], for which, in assay [1], the IC50 was 0.265 µM and affinity was put at a Ki of 0.0129 µM.
On to “GPMGMADLAENVSLPLSQESFEDLWKMNLNLMAVQPPVTESWVGYDNFMMEAPLQVEFDPSLFEVSATEPAPQPSISTLDTGSPPTST [O.kis p53 P2 full, expressed full-length coho salmon p53TAD paralog 2]”, for which the affinity in assay [4], expressed as Kd, was 0.07 ± 0.01 µM. For the same compound, the IC50 came out at 2.13e-06 M in assay [4] (setting [14]), 2.37e-06 M in assay [4] (setting [15]), 2.18e-06 M in assay [4] (setting [16]) and 2.23e-06 M in assay [4] (setting [22]). In addition, the Ki in assay [4] (setting [17]) is 68.6 nM; in assay [4] (setting [18]), 69 nM; in assay [4] (setting [19]), 55.4 nM; in assay [4] (setting [20]) it was 88.9 nM; in assay [4] (setting [21]) it was 61.7 nM.
Regarding “GPMGMNQDEMTELPMSQGTFDEIWASNFVNNLDKTILDDLPPAFSNPSIHTLMDLGPSGVEGFVGLELPLDGSAPTPSSSPGMDCLPPTATT [C.har p53 P1 full, expressed full-length Atlantic herring p53TAD paralog 1]”, the equilibrium dissociation constant (Kd) in assay [3] was found to be 0.19 ± 0.04 µM. Also, the IC50 is 1440 nM in assay [3] (setting [5]), 1470 nM in assay [3] (setting [8]), 1660 nM in assay [3] (setting [10]) and 1180 nM in assay [3] (setting [12]). Moreover, the inhibition constant (Ki) is 189 nM in assay [3] (setting [6]); 190 nM in assay [3] (setting [7]); 199 nM in assay [3] (setting [9]); 252 nM in assay [3] (setting [11]); 117 nM in assay [3] (setting [13]).
In assay [2], “GPMGMTEQEAESLPLSQESFQELWKMMCPPATIHEPLSVNDGWHLESLLSETPLQESIDAGVFDLPTTLPPQPSVSAFNGDAALSST [A.ang p53 P1 full, expressed full-length European eel p53TAD paralog 1]” displayed a Kd of 0.23 ± 0.02 µM. Besides, the IC50 is 2210 nM in assay [2] (setting [5]), 2080 nM in assay [2] (setting [8]), 2490 nM in assay [2] (setting [10]) and 2060 nM in assay [2] (setting [12]). Also, the Ki in assay [2] (setting [6]) was 229 nM; in assay [2] (setting [7]), 229 nM; in assay [2] (setting [9]) it was 208 nM; in assay [2] (setting [11]) it was 277 nM; in assay [2] (setting [13]), 203 nM.
With Ac-SQESFQELWNMVI [L.ocu p53 short], in assay [1], the IC50 is 1.05 µM and the affinity, expressed as Ki, was 0.12 µM.
In assay [4], “GPMGMEEQELSFPMSQGSFQQLWETNMSTQGSNIPPFGTGNWSDLDVSLAPVLPEATFHEDFDEGLFELPEPLAVEPLMSPLDSVPPPAST [O.kis p53 P1b full, expressed full-length coho salmon p53TAD paralog 1b]” returned a Kd of 0.06 ± 0.01 µM. For the same compound, the concentration for half-maximal inhibition (IC50) worked out at 2.27e-06 M in assay [4] (setting [14]), 2.26e-06 M in assay [4] (setting [15]), 1.96e-06 M in assay [4] (setting [16]) and 2.16e-06 M in assay [4] (setting [22]). The inhibition constant Ki in assay [4] (setting [17]) was 59.6 nM; in assay [4] (setting [18]), 60 nM; in assay [4] (setting [19]), 75.2 nM; in assay [4] (setting [20]) it was 73.4 nM; in assay [4] (setting [21]), 30.3 nM.
“GPMGMEELSPPLGQCSFQQLWESNMTPQGPSIPLVATENWSDLDVSLLPDATLHKVFDEVLFELLEPPVVEPSVSTLDSVPPPAST [O.kis p53 P1a full, expressed full-length coho salmon p53TAD paralog 1a]” showed a Kd in assay [4] of 0.048 ± 0.005 µM. Further, the IC50 in assay [4] (setting [14]) worked out at 2.11e-06 M; in assay [4] (setting [15]) it was 2.02e-06 M; in assay [4] (setting [16]), 2.12e-06 M; in assay [4] (setting [22]) it was 2.08e-06 M. Further, the Ki in assay [4] (setting [17]) was 48.4 nM; in assay [4] (setting [18]), 48 nM; in assay [4] (setting [19]) it was 52.4 nM; in assay [4] (setting [20]), 38.8 nM; in assay [4] (setting [21]) it was 54.1 nM.

Usually IC50 stands for the concentration that inhibits the measured activity by half. Usually Kd stands for the constant that tells how readily two partners part at equilibrium. The low end stands for tighter binding, the high end for weaker binding. The Ki is a dissociation constant, usually derived from enzyme kinetics or from competition with a known ligand.

(Values after paper PMC10901556, “Conservation of Affinity Rather Than Sequence Underlies a Dynamic Evolution of the Motif-Mediated p53/MDM2 Interaction in Ray-Finned Fishes” (Molecular Biology and Evolution, 2024).)
